According to publication PMC8412326, “A novel angiotensin I-converting enzyme inhibitory peptide derived from the trypsin hydrolysates of salmon bone proteins” (PLoS ONE, 2021):
Like-named read-outs stand apart in the source and are kept apart here. Ends that are not written are not given here.

Experiments:
ACE [1] = conditions: cited from earlier work
From the text: Trp-Pro-Met-Gly-Phe (636.75 Da) is one such example, obtained from the trypsin hydrolysates of Cyclina sinensis, along with Val-Val-Ser-Leu-Ser-Ile-Pro-Arg (869.53 Da) which comes from pigeon pea seeds. There have been some ACE-inhibitory peptides reported to carry out their ACE-inhibitory activity through an uncompetitive pattern, including Ala-Trp, Phe-Tyr, and Ile-Trp which are derived from wakame hydrolysates of (Undaria pinnatifida) using protease, and also Phe-Glu-Ser-As ...

[2] = Solubility in ultrapure water; type: physicochemical; conditions: read-out: Solubility in ultrapure water (good solubility at concentrations not exceeding the value)
[3] = biological target: T1, ACE (E.C. 3.4.15.1) derived from rabbit lungs (Oryctolagus cuniculus, UniProt P12822); experiment: ACE inhibition kinetics (Lineweaver-Burk); type: biochemical; conditions: secondary plot 1/Vmax vs peptide concentration; 37°C; n = 3
T1 construct: ACE (E.C. 3.4.15.1) derived from rabbit lungs; purchased Sigma Chemical Co. (St. Louis, MO, USA); host or cells: rabbit lung tissue
T1 sequence (P12822 34-1310): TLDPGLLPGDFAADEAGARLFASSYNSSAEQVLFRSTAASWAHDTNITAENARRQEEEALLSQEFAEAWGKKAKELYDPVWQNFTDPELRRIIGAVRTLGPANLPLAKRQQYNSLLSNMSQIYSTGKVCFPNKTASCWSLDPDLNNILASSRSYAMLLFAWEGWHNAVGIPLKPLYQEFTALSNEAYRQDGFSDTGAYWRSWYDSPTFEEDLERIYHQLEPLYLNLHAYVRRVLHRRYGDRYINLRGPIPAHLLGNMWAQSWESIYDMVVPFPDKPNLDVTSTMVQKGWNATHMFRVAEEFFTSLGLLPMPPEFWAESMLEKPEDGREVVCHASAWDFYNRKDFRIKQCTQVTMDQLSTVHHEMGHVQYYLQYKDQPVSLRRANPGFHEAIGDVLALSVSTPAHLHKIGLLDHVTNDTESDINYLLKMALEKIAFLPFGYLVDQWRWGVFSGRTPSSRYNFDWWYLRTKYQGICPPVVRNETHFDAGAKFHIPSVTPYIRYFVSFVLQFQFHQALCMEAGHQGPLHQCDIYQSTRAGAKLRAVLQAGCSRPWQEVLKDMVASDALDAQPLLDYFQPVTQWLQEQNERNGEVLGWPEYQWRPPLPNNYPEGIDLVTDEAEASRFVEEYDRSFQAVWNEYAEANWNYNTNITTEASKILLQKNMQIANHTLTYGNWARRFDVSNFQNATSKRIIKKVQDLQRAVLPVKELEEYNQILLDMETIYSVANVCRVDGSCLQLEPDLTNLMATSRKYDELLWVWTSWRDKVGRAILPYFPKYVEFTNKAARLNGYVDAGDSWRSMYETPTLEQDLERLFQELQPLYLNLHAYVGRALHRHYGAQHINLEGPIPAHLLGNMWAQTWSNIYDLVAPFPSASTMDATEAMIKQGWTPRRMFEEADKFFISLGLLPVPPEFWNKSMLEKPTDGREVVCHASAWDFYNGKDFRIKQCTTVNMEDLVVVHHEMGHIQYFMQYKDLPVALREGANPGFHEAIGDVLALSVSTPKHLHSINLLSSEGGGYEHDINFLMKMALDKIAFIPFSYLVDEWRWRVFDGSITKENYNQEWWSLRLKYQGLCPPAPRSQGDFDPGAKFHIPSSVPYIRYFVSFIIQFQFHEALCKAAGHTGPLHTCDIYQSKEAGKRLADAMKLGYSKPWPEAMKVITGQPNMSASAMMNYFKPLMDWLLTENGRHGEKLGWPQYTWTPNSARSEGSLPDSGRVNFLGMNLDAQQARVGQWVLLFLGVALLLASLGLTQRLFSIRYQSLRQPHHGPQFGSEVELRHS
From the text: (§1) The chemicals used in the study included ACE (E.C. 3.4.15.1) derived from rabbit lungs, acetonitrile, bovine serum albumin (BSA), captopril, dithiothreitol (DTT), hippuric acid, hippuryl-L-histidyl-L-leucine (HHL), o-phthaldehyde (OPA), sodium dodecyl sulfate (SDS), sodium tetraborate decahydrate, 2, 4, 6-trinitrobenzenesulfonic acid (TNBS), and Trypsin from porcine pancreas (1500 U/mg), all of which were obtained from Sigma Chemical Co. (St. Louis, MO, USA). In addition, dithiothreitol (DTT) and L-serine were purchased from Merck (Germany). All chemicals used were of analytical grade.
ACE-inhibition kinetics were evaluated using varied HHL concentrations (0.5, 1, 3, 5, and 7 mM) to which varied FCLYELAR peptide concentrations were introduced (0.05, 0.1 and 0.2 mM). The reaction assay required that the peptide concentrations which had been dissolved in PBS undergo incubation with the ACE solution which contained the different HHL concentrations which had been dissolved in the reaction buffer. Aliquots of sodium sulfite and TNBS were subsequently added prior to 80minutes of incubation at a temperature of 37°C, allowing the level of ACE-inhibitory activity to be evaluated. […] Secondary plots were then used to determine the inhibitor constant (Ki). […]

[4] = biological target: T1, ACE (E.C. 3.4.15.1) derived from rabbit lungs; experiment: ACE-inhibitory activity assay (HHL substrate, TNBS); type: biochemical; conditions: synthetic peptide, purity at least 95%; 5 mM HHL, pH 8.3, 37°C, 1 h, 420 nm
From the text: as §1
The ACE -inhibition test was performed following the approach of Ibrahim et al.. At the beginning of the inhibition assay, a 10 μL aliquot of the peptide sample was added to 31 μL of 50 mM potassium phosphate buffer with a pH of 8.3 containing 0.3 M NaCl in each well of the 96-well microplate, while PBS was used for the control reaction. […] The ACE -inhibitory activity was determined by measuring the absorbance at 420 nm. […] The following Eq (3) was used to calculate the percentage of ACE -inhibitory activity: ACE-inhibitoryactivity%=C−Bi−S−Bs/C−Bi×100 (3) in which the absorbance of the control is given by C (100% activity), the sample (inhibitor peptide) is given by S, the blank inhibitor (HHL alone) is given by Bi, and the blank sample (peptide alone) is represented by Bs. […]

ACE [5] = conditions: cited from earlier work; remark: listed apart in the source
From the text: For example, Phe-Leu was isolated from the hydrolysate of chum salmon muscle by Ono et al.. […] In addition, peptides offering antihypertensive capabilities obtained from ...

[6] = hen egg white lysozyme (HEWL) hydrolysates

For Ala-Trp, the Inhibition pattern (ACE [1]; wakame hydrolysates) is listed as “uncompetitive”.
“FCLYELAR [FCLYELAR, Phe-Cys-Leu-Tyr-Glu-Leu-Ala-Arg]” gave a solubility [2] of no less than 5000 µg/mL, a Ki [3] of 24.8 µM and an IC50 [4] of 31.63 ± 0.15 µM.
For “FESNFNTQATNR [from lysozyme (HEWL) hydrolysates of hens’ eggs]”, the Inhibition pattern (ACE [1]; [6]) is given as “uncompetitive” and the Ki (ACE [1]; [6]) is given as 82 µg/mL.
For “FGASTRGA [from Alaska pollack hydrolysates with pepsin]”, the IC50 (ACE [5]; Alaska pollack hydrolysate, pepsin) is listed as 14.7 µM.
In the case of FGMPLDR [from Ulva intestinalis], the IC50 (ACE [5]; Ulva intestinalis) is listed as 219 µM.
For “Gly-Asp-Leu-Gly-Lys-Thr-Thr-Thr-Val-Ser-Asn-Trp-Ser-Pro-Pro-Lys-Try-Lys-Asp-Thr-Pro [from tuna frame protein]”, the IC50 (ACE [5]; tuna frame protein) is listed as 11.3 µM.
For Ile-Trp, the Inhibition pattern (ACE [1]; wakame hydrolysates) is given as “uncompetitive”.
In the case of MELVLR [from Ulva intestinalis], the IC50 (ACE [5]; Ulva intestinalis) is given as 237 µM.
For “MEVFVP [from flounder muscle hydrolysates]”, the IC50 (ACE [5]; flounder muscle hydrolysate) is listed as 79 µM.
In the case of Phe-Leu, the IC50 (ACE [5]; chum salmon muscle hydrolysate, thermolysin) is listed as 13.6 µM.
In the case of Phe-Tyr, the Inhibition pattern (ACE [1]; wakame hydrolysates) is given as “uncompetitive”.
For “Trp-Pro-Met-Gly-Phe [from trypsin hydrolysates of Cyclina sinensis]”, the Inhibition pattern (ACE [1]; Cyclina sinensis trypsin hydrolysates) is given as “competitive”.
For “VSQLTR [from flounder muscle hydrolysates]”, the IC50 (ACE [5]; flounder muscle hydrolysate) is given as 105 µM.
In the case of VVSLSIPR [from pigeon pea seeds], the Inhibition pattern (ACE [1]; pigeon pea seeds) is listed as “competitive”.
For “YLYEIARR [from the tryptic hydrolysate found in human plasma]”, the Inhibition pattern (ACE [1]; tryptic hydrolysate of human plasma) is given as “uncompetitive”.
